In patent publication US8084466B2, “Bicyclic heteroaryl-substituted imidazoles as modulators of the histamine H4 receptor” (Janssen Pharmaceutica NV, priority 2007, dated 2011) one finds Ki data, which are given here for 32 compounds.

The assay has as its target T1, human histamine H4 receptor (Homo sapiens, UniProt Q9H3N8).
T1 construct: expressed in transfected cells; host or cells: SK-N-MC cells or COS7 cells, transient transfection with pH4R; cell membranes
Kind of assay: Binding Assay on Recombinant Human Histamine H4 Receptor. The settings on record: competition binding with 3H-histamine (5 nM; KD 5 nM), membranes of SK-N-MC or COS7 cells expressing human H4 receptor; average of results; > = highest value tested. The method, then: Biological Methods: Binding Assay on Recombinant Human Histamine H4 Receptor
SK-N-MC cells or COS7 cells were transiently transfected with pH4R and grown in 150 cm^2 tissue culture dishes. Cells were washed with saline solution, scraped with a cell scraper and collected by centrifugation (1000 rpm, 5 min). Cell membranes were prepared by homogenization of the cell pellet in 20 mM Tris-HCl with a polytron tissue homogenizer for 10 sec at high speed. Homogenate was centrifuged at 1000 rpm for 5 min at 4° C. The supernatant was then collected and centrifuged at 20,000×g for 25 min at 4° C. The final pellet was resuspended in 50 mM Tris-HCl. Cell membranes were incubated with ^3H-histamine (5-70 nM) in the presence or absence of excess histamine (10,000 nM). Incubation occurred at room temperature for […]. Membranes were harvested by rapid filtration over Whatman GF/C filters and washed 4 times with ice-cold 50 mM Tris HCl. Filters were then dried, mixed with scintillant and counted for radioactivity. SK-N-MC or COS7 cells expressing human histamine H4 receptor were used to measure the affinity of binding of other compounds and their ability to displace ^3H-ligand binding by incubating the above-described reaction in the presence of various concentrations of inhibitor or compound to be tested. For competition binding studies using ^3H-histamine, Ki values were calculated, based on an experimentally determined KD value of 5 nM and a ligand concentration of 5 nM, according to Y.-C.

T1 sequence (Q9H3N8 whole entry): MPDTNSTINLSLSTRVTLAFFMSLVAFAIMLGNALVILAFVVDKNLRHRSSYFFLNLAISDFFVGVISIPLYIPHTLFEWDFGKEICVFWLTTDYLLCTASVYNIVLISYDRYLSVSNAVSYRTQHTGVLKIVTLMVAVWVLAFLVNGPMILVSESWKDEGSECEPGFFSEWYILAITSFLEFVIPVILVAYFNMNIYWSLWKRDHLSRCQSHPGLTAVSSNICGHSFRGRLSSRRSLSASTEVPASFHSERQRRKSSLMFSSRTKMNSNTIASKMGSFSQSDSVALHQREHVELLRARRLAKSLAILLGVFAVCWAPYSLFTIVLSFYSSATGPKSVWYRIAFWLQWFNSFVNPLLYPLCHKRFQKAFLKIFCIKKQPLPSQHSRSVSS

For the compound `Cc1c(-c2nc3c(C)c(F)ccc3[nH]2)ccc2c1CCN2CCCC1CCN(C)CC1` [Example 1, 5-Fluoro-4-methyl-2-{4-methyl-1-[3-(1-methyl-pieridin-4-yl)-proyl]-2,3-dihydro-1H-indol-5-yl}-1H-benzoimidazole], the Ki turned out to be 29 nM.

For the compound `Cc1ccc2[nH]c(-c3ccc4c(c3C)CCN4CCCC3CCN(C)CC3)nc2c1C` [Example 2, 4,5-Dimethyl-2-{4-methyl-1-[3-(1-methyl-piperidin-4-yl)-propyl]-2,3-dihydro-1H-indol-5-yl}-1H-benzoimidazole], the Ki was 15 nM.

Regarding `Cc1cc(C)c2nc(-c3ccc4c(c3Cl)CCN4CCCC3CCN(C)CC3)[nH]c2c1` [Example 3, 2-{4-Chloro-1-[3-(1-methyl-piperidin-4-yl)-propyl]-2,3-dihydro-1H-indol-5-yl}-4,6-dimethyl-1H-benzoimidazole], the Ki is 33 nM.

For `Cc1c(F)ccc2[nH]c(-c3ccc4c(c3Cl)CCN4CCCC3CCN(C)CC3)nc12` [Example 4, 2-{4-Chloro-1-[3-(1-methyl-piperidin-4-yl)-propyl]-2,3-dihydro-1H-indol-5-yl}-5-fluoro-4-methyl-1H-benzoimidazole], the Ki was 34 nM.

As to `COC(=O)c1ccc2[nH]c(-c3ccc4c(c3Cl)CCN4CCCC3CCN(C)CC3)nc2c1` [Example 5, 2-{4-Chloro-1-[3-(1-methyl-piperidin-4-yl)-propyl]-2,3-dihydro-1H-indol-5-yl}-1H-benzoimidazole-5-carboxylic acid methyl ester], the Ki amounted to 76 nM.

Consider `Cc1c(F)ccc2[nH]c(-c3ccc4c(c3F)CCN4CCCC3CCN(C)CC3)nc12` [Example 6, 5-Fluoro-2-{4-fluoro-1-[3-(1-methyl-piperidin-4-yl)-propyl]-2,3-dihydro-1H-indol-5-yl}-4-methyl-1H-benzoimidazole], for which the Ki was found to be 123 nM.

As to `Cc1c(-c2nc3c(C)c(F)ccc3[nH]2)ccc2c1ccn2CCCC1CCN(C)CC1` [Example 7, 5-Fluoro-4-methyl-2-{4-methyl-1-[3-(1-methyl-piperidin-4-yl)-propyl]-1H-indol-5-yl}-1H-benzoimidazole], the Ki stood at 29 nM.

As to `Cc1c(F)ccc2[nH]c(-c3ccc4c(ccn4CCCC4CCN(C)CC4)c3Cl)nc12` [Example 8, 2-{4-Chloro-1-[3-(1-methyl-piperidin-4-yl)-propyl]-1H-indol-5-yl}-5-fluoro-4-methyl-1H-benzoimidazole], the Ki came out at 29 nM.

Turning to `Cc1cc(C)c2nc(-c3ccc4c(ccn4CCCC4CCN(C)CC4)c3Cl)[nH]c2c1` [Example 9, 2-{4-Chloro-1-[3-(1-methyl-piperidin-4-yl)-propyl]-1H-indol-5-yl}-4,6-dimethyl-1H-benzoimidazole], the Ki was determined as 14 nM.

Regarding `Cc1c(-c2nc3cc(Cl)ccc3[nH]2)ccc2c1ccn2CCCC1CCN(C)CC1` [Example 10, 5-Chloro-2-{4-methyl-1-[3-(1-methyl-piperidin-4-yl)-propyl]-1H-indol-5-yl}-1H-benzoimidazole], the Ki came to 19 nM.

`Cc1c(F)ccc2[nH]c(-c3ccc4c(ccn4CCCC4CCN(C)CC4)c3)nc12` [Example 11, 5-Fluoro-4-methyl-2-{1-[3-(1-methyl-piperidin-4-yl)-propyl]-1H-indol-5-yl}-1H-benzoimidazole]: the Ki was 77 nM.

Consider `Cc1cccc2[nH]c(-c3ccc4c(ccn4CCCC4CCN(C)CC4)c3)nc12` [Example 12, 4-Methyl-2-{1-[3-(1-methyl-piperidin-4-yl)-propyl]-1H-indol-5-yl}-1H-benzoimidazole], for which the Ki came to 120 nM.

As for `Cc1c(F)ccc2[nH]c(-c3ccc4c(ccn4CCCN4CCN(C)CC4)c3)nc12` [Example 13, 5-Fluoro-4-methyl-2-{1-[3-(4-methyl-piperazin-1-yl)-propyl]-1H-indol-5-yl}-1H-benzoimidazole], the Ki turned out to be 168 nM.

`Cc1cc(C)c2nc(-c3ccc4c(c3)c(C)c(C)n4CCCC3CCN(C)CC3)[nH]c2c1` [Example 14, 2-{2,3-Dimethyl-1-[3-(1-methyl-piperidin-4-yl)-propyl]-1H-indol-5-yl}-4,6-dimethyl-1H-benzoimidazole]: the Ki was determined as 84 nM.

Turning to `Cc1c(C)n(CCCC2CCN(C)CC2)c2ccc(-c3nc4c(C)c(F)ccc4[nH]3)cc12` [Example 15, 2-{2,3-Dimethyl-1-[3-(1-methyl-piperidin-4-yl)-propyl]-1H-indol-5-yl}-5-fluoro-4-methyl-1H-benzoimidazole], the Ki was found to be 110 nM.

In the case of `Cc1c(F)ccc2[nH]c(-c3cccc4c3ccn4CCCCC3CCN(C)CC3)nc12` [Example 16, 5-Fluoro-4-methyl-2-{1-[4-(1-methyl-piperidin-4-yl)-butyl]-1H-indol-4-yl}-1H-benzoimidazole], the Ki was 23 nM.

In the case of `CN1CCC(CCCCn2ccc3c(-c4nc5c(Cl)cccc5[nH]4)cccc32)CC1` [Example 17, 4-Chloro-2-{1-[4-(1-methyl-piperidin-4-yl)-butyl]-1H-indol-4-yl}-1H-benzoimidazole], the Ki was 58 nM.

As for `CN1CCC(CCCCn2ccc3c(-c4nc5cc(C(F)(F)F)ccc5[nH]4)cccc32)CC1` [Example 18, 2-{1-[4-(1-Methyl-piperidin-4-yl)-butyl]-1H-indol-4-yl}-5-trifluoromethyl-1H-benzoimidazole], the Ki turned out to be 85 nM.

With `CN1CCC(CCCCn2ccc3c(-c4nc5cc6c(cc5[nH]4)OCO6)cccc32)CC1` [Example 19, 6-{1-[4-(1-Methyl-piperidin-4-yl)-butyl]-1H-indol-4-yl}-5H-[1,3]dioxolo[4′,5′:4,5]benzo[1,2-d] imidazole], the Ki was 404 nM.

As for `CN1CCC(CCCCn2ccc3c(-c4nc5cc(C(=O)c6ccccc6)ccc5[nH]4)cccc32)CC1` [Example 20, (2-{1-[4-(1-Methyl-piperidin-4-yl)-butyl]-1H-indol-4-yl}-1H-benzoimidazol-5-yl)-phenyl-methanone], the Ki worked out at 619 nM.

For `CN1CCC(CCCCn2ccc3c(-c4nc5cc6ccccc6cc5[nH]4)cccc32)CC1` [Example 21, 2-{1-[4-(1-Methyl-piperidin-4-yl)-butyl]-1H-indol-4-yl}-1H-naphtho[2,3-d]imidazole], the Ki is 187 nM.

In the case of `Cc1cc(Cl)cc2[nH]c(-c3cccc4c3ccn4CCCCC3CCN(C)CC3)nc12` [Example 22, 6-Chloro-4-methyl-2-{1-[4-(1-methyl-piperidin-4-yl)-butyl]-1H-indol-4-yl}-1H-benzoimidazole], the Ki came to 105 nM.

Turning to `Cc1cccc2[nH]c(-c3cccc4c3ccn4CCCCC3CCN(C)CC3)nc12` [Example 23, 4-Methyl-2-{1-[4-(1-methyl-piperidin-4-yl)-butyl]-1H-indol-4-yl}-1H-benzoimidazole], the Ki stood at 98 nM.

Turning to `CN1CCC(CCCCn2ccc3c(-c4nc5cc(C(C)(C)C)ccc5[nH]4)cccc32)CC1` [Example 24, 5-tert-Butyl-2-{1-[4-(1-methyl-piperidin-4-yl)-butyl]-1H-indol-4-yl}-1H-benzoimidazole], the Ki worked out at 40 nM.

On to `Cc1cc(C)c2nc(-c3ccc4ccn(CCCCC5CCN(C)CC5)c4c3)[nH]c2c1` [Example 25, 4,6-Dimethyl-2-{1-[4-(1-methyl-piperidin-4-yl)-butyl]-1H-indol-6-yl}-1H-benzoimidazole], for which the Ki worked out at 350 nM.

Turning to `Cc1c(F)ccc2[nH]c(-c3ccc4ccn(CCCCC5CCN(C)CC5)c4c3)nc12` [Example 26, 5-Fluoro-4-methyl-2-{1-[4-(1-methyl-piperidin-4-yl)-butyl]-1H-indol-6-yl}-1H-benzoimidazole], the Ki came out at 880 nM.

As to `Cc1cccc2[nH]c(-c3ccc4ccn(CCCCC5CCN(C)CC5)c4c3)nc12` [Example 27, 4-Methyl-2-{1-[4-(1-methyl-piperidin-4-yl)-butyl]-1H-indol-6-yl}-1H-benzoimidazole], the Ki turned out to be 750 nM.

With `CN1CCC(CCCn2cc(Cl)c3cc(-c4nc5cc(C(C)(C)C)ccc5[nH]4)ccc32)CC1` [Example 28, 5-tert-Butyl-2-{3-chloro-1-[3-(1-methyl-piperidin-4-yl)-propyl]-1H-indol-5-yl}-1H-benzoimidazole], the Ki came out at 349 nM.

Take `Cc1cc(Cl)cc2[nH]c(-c3ccc4c(c3)c(Cl)cn4CCCC3CCN(C)CC3)nc12` [Example 29, 6-Chloro-2-{3-chloro-1-[3-(1-methyl-piperidin-4-yl)-propyl]-1H-indol-5-yl}-4-methyl-1H-benzoimidazole]: the Ki was found to be 1670 nM.

As to `CN1CCC(CCCCn2cc(Cl)c3c(-c4nc5cc(C(F)(F)F)ccc5[nH]4)cccc32)CC1` [Example 30, 2-{3-Chloro-1-[4-(1-methyl-piperidin-4-yl)-butyl]-1H-indol-4-yl}-5-trifluoromethyl-1H-benzoimidazole], the Ki stood at 47 nM.

Regarding `Cc1c(F)ccc2[nH]c(-c3cccc4c3c(Cl)cn4CCCCC3CCN(C)CC3)nc12` [Example 31, 2-{3-Chloro-1-[4-(1-methyl-piperidin-4-yl)-butyl]-1H-indol-4-yl}-5-fluoro-4-methyl-1H-benzoimidazole], the Ki was 118 nM.

On to `CN1CCC(CCCCn2cc(Cl)c3c(-c4nc5cc(F)c(F)cc5[nH]4)cccc32)CC1` [Example 32, 2-{3-Chloro-1-[4-(1-methyl-piperidin-4-yl)-butyl]-1H-indol-4-yl}-5,6-difluoro-1H-benzoimidazole], for which the Ki was 599 nM.
